Reference: publication PMC8537140, “Synthesis and Inhibition Activity Study of Triazinyl-Substituted Amino(alkyl)-benzenesulfonamide Conjugates with Polar and Hydrophobic Amino Acids as Inhibitors of Human Carbonic Anhydrases I, II, IV, IX, and XII” (International Journal of Molecular Sciences, 2021)

Columns and labels:
Assay type in all cases: biochemical
hCA IV = biological target: T1, hCA IV (Homo sapiens, UniProt P22748); test: stopped-flow CO2 hydrase assay, hCA IV; conditions: recombinant enzyme, 15 min preincubation, pH 8.3, mean from 3 assays
T1 construct: made in house
T1 sequence (P22748 19-312): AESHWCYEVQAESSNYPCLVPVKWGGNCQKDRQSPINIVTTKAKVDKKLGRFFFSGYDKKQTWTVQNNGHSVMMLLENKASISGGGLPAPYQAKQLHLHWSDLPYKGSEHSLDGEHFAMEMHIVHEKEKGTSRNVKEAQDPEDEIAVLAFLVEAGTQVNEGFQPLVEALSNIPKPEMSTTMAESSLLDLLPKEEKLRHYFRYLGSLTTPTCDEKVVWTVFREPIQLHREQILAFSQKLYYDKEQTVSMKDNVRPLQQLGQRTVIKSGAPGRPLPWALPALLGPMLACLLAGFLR
Method: (§1) An Applied Photophysics stopped-flow instrument (Applied Photophysics, Leatherhead, UK) was used for assaying the CA-catalyzed CO2 hydration activity [31]. […] The uncatalyzed rates were determined in the same manner and subtracted from the total observed rates. Stock solutions of inhibitor (0.1 mM) were prepared in distilled-deionized water and dilutions up to 0.005 nM were done thereafter with the assay buffer. Inhibitor and enzyme solutions were preincubated together for 15 min at room temperature prior to assay, in order to allow formation of the E–I complex. The inhibition constants were obtained by non-linear least-squares methods using PRISM 3 and the ChengPrusoff equation, as reported earlier, and represent the mean from at least three different determinations. All CA isozymes were recombinant ones obtained in-house.

hCA I = biological target: T2, hCA I (Homo sapiens, UniProt P00915); test: stopped-flow CO2 hydrase assay, hCA I; conditions: recombinant enzyme, 15 min preincubation, pH 8.3, mean from 3 assays
T2 construct: made in house
T2 sequence (P00915 whole entry): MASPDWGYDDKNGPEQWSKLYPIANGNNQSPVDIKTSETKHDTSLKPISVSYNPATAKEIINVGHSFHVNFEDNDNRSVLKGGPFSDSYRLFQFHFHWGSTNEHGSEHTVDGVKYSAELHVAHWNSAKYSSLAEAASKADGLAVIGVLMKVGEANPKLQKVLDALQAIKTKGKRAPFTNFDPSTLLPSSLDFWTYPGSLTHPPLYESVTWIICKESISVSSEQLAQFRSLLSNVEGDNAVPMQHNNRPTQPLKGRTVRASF
Method: as §1

hCA II = biological target: T3, hCA II (Homo sapiens, UniProt P00918); test: stopped-flow CO2 hydrase assay, hCA II; conditions: recombinant enzyme, 15 min preincubation, pH 8.3, mean from 3 assays
T3 construct: made in house
Method: as §1

hCA IX = biological target: T4, hCA IX (Homo sapiens, UniProt Q16790); test: stopped-flow CO2 hydrase assay, hCA IX; conditions: for Selectivity II/IX: ratio Ki hCA II / Ki hCA IX; for Ki: recombinant enzyme, 15 min preincubation, pH 8.3, mean from 3 assays
T4 construct: made in house
Method: as §1

hCA XII = biological target: T5, hCA XII (Homo sapiens, UniProt O43570); test: stopped-flow CO2 hydrase assay, hCA XII; conditions: for Selectivity II/XII: ratio Ki hCA II / Ki hCA XII; for Ki: recombinant enzyme, 15 min preincubation, pH 8.3, mean from 3 assays
T5 construct: made in house
T5 sequence (O43570 25-354): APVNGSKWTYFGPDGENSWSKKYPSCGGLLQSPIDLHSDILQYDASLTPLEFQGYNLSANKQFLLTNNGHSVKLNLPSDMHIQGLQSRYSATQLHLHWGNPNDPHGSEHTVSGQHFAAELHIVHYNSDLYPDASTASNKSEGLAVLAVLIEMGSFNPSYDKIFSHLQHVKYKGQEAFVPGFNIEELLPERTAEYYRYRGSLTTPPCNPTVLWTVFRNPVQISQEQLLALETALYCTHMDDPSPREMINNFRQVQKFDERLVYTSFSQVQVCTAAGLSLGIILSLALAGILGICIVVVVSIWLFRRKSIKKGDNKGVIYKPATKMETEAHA
Method: as §1

| Compound | Ki (hCA IV) | Ki (hCA I) | Ki (hCA II) | Selectivity II/IX (hCA IX) | Ki (hCA IX) | Selectivity II/XII (hCA XII) | Ki (hCA XII) |
| --- | --- | --- | --- | --- | --- | --- | --- |
| CC(Nc1nc(Nc2ccc(S(N)(=O)=O)cc2)nc(NC(C)C(=O)O)n1)C(=O)O (stereo not drawn) [compound 4] | 88.1 nM | 5540 nM | 782 nM | 1.52 | 515 nM | 88.10 | 8.88 nM |
| NS(=O)(=O)c1ccc(Nc2nc(NC(Cc3ccc(O)cc3)C(=O)O)nc(NC(Cc3ccc(O)cc3)C(=O)O)n2)cc1 (stereo not drawn) [compound 5] | 74.6 nM | 98.3 nM | 3.61 nM | 0.06 | 57.8 nM | 0.40 | 9.41 nM |
| NS(=O)(=O)c1ccc(Nc2nc(N[C@@H](Cc3c[nH]c4ccccc34)C(=O)O)nc(N[C@@H](Cc3c[nH]c4ccccc34)C(=O)O)n2)cc1 [compound 6] | 59.3 nM | 48.3 nM | 1.61 nM | 0.04 | 45.2 nM | 0.20 | 8.21 nM |
| NS(=O)(=O)c1ccc(Nc2nc(NC(CO)C(=O)O)nc(NC(CO)C(=O)O)n2)cc1 (stereo not drawn) [compound 7] | 8700 nM | 6560 nM | 523 nM | 1.12 | 465 nM | 7.30 | 71.9 nM |
| CC(O)C(Nc1nc(Nc2ccc(S(N)(=O)=O)cc2)nc(NC(C(=O)O)C(C)O)n1)C(=O)O (stereo not drawn) [compound 8] | 4910 nM | 7270 nM | 904 nM | 1.04 | 867 nM | 26.10 | 34.6 nM |
| NC(=O)CC(Nc1nc(Nc2ccc(S(N)(=O)=O)cc2)nc(NC(CC(N)=O)C(=O)O)n1)C(=O)O (stereo not drawn) [compound 9] | 5330 nM | > 10000 nM | 656 nM | 0.73 | 895 nM | 17.10 | 38.4 nM |
| NC(=O)CCC(Nc1nc(Nc2ccc(S(N)(=O)=O)cc2)nc(NC(CCC(N)=O)C(=O)O)n1)C(=O)O (stereo not drawn) [compound 10] | 8410 nM | 9200 nM | 775 nM | 1.24 | 625 nM | 11.30 | 68.3 nM |
| CC(Nc1nc(NCc2ccc(S(N)(=O)=O)cc2)nc(NC(C)C(=O)O)n1)C(=O)O (stereo not drawn) [compound 11, 2,2′-[(6-({4-sulfamoylbenzyl}amino)-1,3,5-triazine-2,4-diyl)diimino]dipropanoic acid] | 470 nM | 636 nM | 182 nM | 2.87 | 63.5 nM | 19.60 | 9.3 nM |
| NS(=O)(=O)c1ccc(CNc2nc(NC(Cc3ccc(O)cc3)C(=O)O)nc(NC(Cc3ccc(O)cc3)C(=O)O)n2)cc1 (stereo not drawn) [compound 12, 2,2′-[(6-({4-sulfamoylbenzyl}amino)-1,3,5-triazine-2,4-diyl)diimino]bis(3-(4-hydroxyphenyl)propanoic acid)] | 244 nM | 75.7 nM | 53.1 nM | 0.61 | 87.3 nM | 6.10 | 8.7 nM |
| NS(=O)(=O)c1ccc(CNc2nc(NC(Cc3c[nH]c4ccccc34)C(=O)O)nc(NC(Cc3c[nH]c4ccccc34)C(=O)O)n2)cc1 (stereo not drawn) [compound 13, 2,2′-[(6-({4-sulfamoylbenzyl}amino)-1,3,5-triazine-2,4-diyl)diimino]bis(3-(1H-indol-3-yl)propanoic acid)] | 93.6 nM | 30.5 nM | 6.22 nM | 0.09 | 66.4 nM | 0.70 | 8.6 nM |
| NS(=O)(=O)c1ccc(CNc2nc(NC(CO)C(=O)O)nc(NC(CO)C(=O)O)n2)cc1 (stereo not drawn) [compound 14, 2,2′-[(6-({4-sulfamoylbenzyl}amino)-1,3,5-triazine-2,4-diyl)diimino]bis(3-hydroxypropanoic acid)] | 6100 nM | 653 nM | 252 nM | 0.96 | 263 nM | 3.10 | 81.5 nM |
| CC(O)C(Nc1nc(NCc2ccc(S(N)(=O)=O)cc2)nc(NC(C(=O)O)C(C)O)n1)C(=O)O (stereo not drawn) [compound 15, 2,2′-[(6-({4-sulfamoylbenzyl}amino)-1,3,5-triazine-2,4-diyl)diimino]bis(3-hydroxybutanoic acid)] | > 10000 nM | 684 nM | 76.6 nM | 0.21 | 365 nM | 1.70 | 44.9 nM |
| NC(=O)CC(Nc1nc(NCc2ccc(S(N)(=O)=O)cc2)nc(NC(CC(N)=O)C(=O)O)n1)C(=O)O (stereo not drawn) [compound 16, 2,2′-[(6-({4-sulfamoylbenzyl}amino)-1,3,5-triazine-2,4-diyl)diimino]bis(3-carbamoylpropanoic acid)] | > 10000 nM | 834 nM | 251 nM | 2.63 | 95.3 nM | 5.70 | 44 nM |
| NC(=O)CCC(Nc1nc(NCc2ccc(S(N)(=O)=O)cc2)nc(NC(CCC(N)=O)C(=O)O)n1)C(=O)O (stereo not drawn) [compound 17, 2,2′-[(6-({4-sulfamoylbenzyl}amino)-1,3,5-triazine-2,4-diyl)diimino]bis(4-carbamoylbutanoic acid)] | > 10000 nM | 695 nM | 239 nM | 0.52 | 458 nM | 7.00 | 34.3 nM |
| CC(Nc1nc(NCCc2ccc(S(N)(=O)=O)cc2)nc(NC(C)C(=O)O)n1)C(=O)O (stereo not drawn) [compound 18, 2,2′-[(6-({2-(4-sulfamoylphenyl)ethyl}amino)-1,3,5-triazine-2,4-diyl)diimino]dipropanoic acid] | 3860 nM | 787 nM | 169 nM |  | 78.8 nM |  |  |
| NS(=O)(=O)c1ccc(CCNc2nc(NC(Cc3ccc(O)cc3)C(=O)O)nc(NC(Cc3ccc(O)cc3)C(=O)O)n2)cc1 (stereo not drawn) [compound 19, 2,2′-[(6-({2-(4-sulfamoylphenyl)ethyl}amino)-1,3,5-triazine-2,4-diyl)diimino]bis(3-(4-hydroxyphenyl)propanoic acid)] | 879 nM | 60.8 nM | 12.8 nM | 0.21 | 61.1 nM | 1.70 | 7.5 nM |
| NS(=O)(=O)c1ccc(CCNc2nc(NC(Cc3c[nH]c4ccccc34)C(=O)O)nc(NC(Cc3c[nH]c4ccccc34)C(=O)O)n2)cc1 (stereo not drawn) [compound 20, 2,2′-[(6-({2-(4-sulfamoylphenyl)ethyl}amino)-1,3,5-triazine-2,4-diyl)diimino]bis(3-(1H-indol-3-yl)propanoic acid)] | 542 nM | 41.4 nM | 3.54 nM | 0.01 | 308 nM | 0.40 | 8.4 nM |
| NS(=O)(=O)c1ccc(CCNc2nc(NC(CO)C(=O)O)nc(NC(CO)C(=O)O)n2)cc1 (stereo not drawn) [compound 21, 2,2′-[(6-({2-(4-sulfamoylphenyl)ethyl}amino)-1,3,5-triazine-2,4-diyl)diimino]bis(3-hydroxypropanoic acid)] | > 10000 nM | 819 nM | 273 nM | 3.19 | 85.5 nM | 10.10 | 27.1 nM |
| CC(O)C(Nc1nc(NCCc2ccc(S(N)(=O)=O)cc2)nc(NC(C(=O)O)C(C)O)n1)C(=O)O (stereo not drawn) [compound 22, 2,2′-[(6-({2-(4-sulfamoylphenyl)ethyl}amino)-1,3,5-triazine-2,4-diyl)diimino]bis(3-hydroxybutanoic acid)] | > 10000 nM | 829 nM | 259 nM | 2.89 | 89.5 nM | 4.10 | 62.7 nM |
| NC(=O)CC(Nc1nc(NCCc2ccc(S(N)(=O)=O)cc2)nc(NC(CC(N)=O)C(=O)O)n1)C(=O)O (stereo not drawn) [compound 23, 2,2′-[(6-({2-(4-sulfamoylphenyl)ethyl}amino)-1,3,5-triazine-2,4-diyl)diimino]bis(3-carbamoylpropanoic acid)] | > 10000 nM | 886 nM | 136 nM | 0.36 | 377 nM | 2.60 | 53.1 nM |
| NC(=O)CCC(Nc1nc(NCCc2ccc(S(N)(=O)=O)cc2)nc(NC(CCC(N)=O)C(=O)O)n1)C(=O)O (stereo not drawn) [compound 24, 2,2′-[(6-({2-(4-sulfamoylphenyl)ethyl}amino)-1,3,5-triazine-2,4-diyl)diimino]bis(4-carbamoylbutanoic acid)] | > 10000 nM | 684 nM | 191 nM | 0.40 | 480 nM | 3.40 | 57 nM |
